Assay results as given in patent US20100008965A1, “BIOCOMPATIBLE MEDICAL PRODUCTS HAVING ENHANCED ANTI-THROMBOGENIC PROPERTIES” (priority 2008, published 2010).

How the values were obtained:
[1] = system: HCAEC; assay: HCAEC cell binding assay to immobilized fibronectin polypeptides (crystal violet); type: cell-based, human; details: immobilized, 8 h
Protocol: (§1) Human coronary artery endothelial cell (HCAEC) and human umbilical vein endothelial cell (HUVEC) primary human cells were obtained (Cambrex Corporation, East Rutherford, N.J.) and maintained according to the manufacturer's instructions at 37° C. and 5% CO2. HCAEC were grown in microvascular endothelial cell medium (EBM-2 MV, Cambrex) supplemented with 5% fetal bovine serum, 0.1% human epidermal growth factor, 0.04% hydrocortisone, 0.1% vascular endothelial growth factor, 0.4% human fibroblast growth factor-B, 0.1% R^3-insulin-like growth factor-1, 0.1% ascorbic acid, and 0.1% gentamicin and amphotericin-B (GA-1000). HUVEC were grown in endothelial cell medium (EBM, Cambrex) supplemented with 2% fetal bovine serum, 0.4% bovine brain extract, 0.1% human epidermal growth factor, 0.1% hydrocortisone, and 0.1% gentamicin and amphotericin-B (GA-1000). HCAEC and HUVEC were subcultured at 90-95% confluence using 0.05% trypsin-EDTA (Invitrogen, Carlsbad, Calif.) and used for experiments between passages 3-7 (HUVEC) or 5-11 (HCAEC).
HCAEC or HUVEC cell binding assays to immobilized recombinant fibronectin polypeptides were performed in order to ascertain which polypeptide(s) maximally support(s) alpha-4 integrin-mediated cell adhesion. Connecting Segment-1 (SEQ ID NO:1), EILDV (SEQ ID NO:2), RGDS (SEQ ID NO:3) (positive control), RGES (SEQ ID NO:4) (negative control), and EILEVPST (SEQ ID NO:5) (negative control) and were immobilized by drying overnight at room temperature in Immobilizer™ Amino 96-well microplates (Nalge Nunc International, Rochester, N.Y.). RGES, EILDV, and EILEVPST were incubated at a molar equivalent concentration equal to 200 μg RGDS per well. CS-1 was incubated at 50 μg/well. On a molar basis per well, this equates to approximately twenty-fold less CS-1 relative to RGDS. […] Cells were manually counted, and their concentration adjusted to yield a total cell population of 5×10^4 cells/well. […] Spectrometric absorbance values were read at 562 nm at room temperature using a ThermoMax microplate reader (Molecular Devices Corporation, Sunnyvale, Calif.).

[2] = system: HUVEC; assay: alpha-4 integrin function blocking cell binding assay, HUVEC; type: cell-based, human; details: 0.5 μg antibody per 5×10^4 cells, 8 h; CS-1 p=0.1
Protocol: (§2) To verify that HCAEC or HUVEC adhesion to immobilized CS-1 polypeptides is specifically mediated via alpha-4-containing integrin heterodimers, alpha-4 integrin function blocking cell binding assays were performed. RGDS, EILEVPST, and CS-1 polypeptides were immobilized in Immobilizer™ Amino 96-well microplates. Microplate wells were prepared as described above. Trypsinized HCAEC or HUVEC suspensions were manually counted, aliquoted into two groups, and incubated for one hour on ice with one of the following antibodies at a concentration of 0.5 μg antibody per 5×10^4 cells: (a) mouse monoclonal IgG1 anti-human alpha-4-integrin (CD49d, clone P1H4) (Chemicon), or (b) mouse monoclonal IgG1 anti-human isotype-matched control (R&D Systems). Next, 5×10^4 cells suspended in their respective basal medium were added to wells containing immobilized peptide polypeptides and incubated for eight hours at 37° C. and a 5% CO2 atmosphere. Adherent cells were analyzed via crystal violet staining as described previously.
To differentiate whether HCAEC and HUVEC adhere to CS-1 peptides via an alpha-4 integrin-specific interaction, HCAEC and HUVEC adhesion assays to CS-1, RGDS, and EILEVPST peptides were performed following one hour endothelial cell incubations with either an alpha-4 integrin function blocking antibody or an IgG isotype-matched control antibody. […]

[3] = system: HUVEC; assay: HUVEC cell binding assay to immobilized fibronectin polypeptides (crystal violet); type: cell-based, human; details: 8 h
Protocol: as §1, with “HCAEC and HUVEC were subcultured at 90-95% confluence using 0.05% trypsin-EDTA (Invitrogen, Carlsbad, Calif.) and used for experiments between passages 3-7 (HUVEC) or 5-11 (HCAEC).” left out
HCAEC or HUVEC cell binding assays to immobilized recombinant fibronectin polypeptides were performed in order to ascertain which polypeptide(s) maximally support(s) alpha-4 integrin-mediated cell adhesion. […] Cells were manually counted, and their concentration adjusted to yield a total cell population of 5×10^4 cells/well. […] Spectrometric absorbance values were read at 562 nm at room temperature using a ThermoMax microplate reader (Molecular Devices Corporation, Sunnyvale, Calif.).

[4] = system: HCAEC; assay: alpha-4 integrin function blocking cell binding assay, HCAEC; type: cell-based, human; details: 0.5 μg antibody per 5×10^4 cells, 8 h; CS-1 p<0.05
Protocol: as §2
To differentiate whether HCAEC and HUVEC adhere to CS-1 peptides via an alpha-4 integrin-specific interaction, HCAEC and HUVEC adhesion assays to CS-1, RGDS, and EILEVPST peptides were performed following one hour endothelial cell incubations with either an alpha-4 integrin function blocking antibody or an IgG isotype-matched control antibody. The EILEVPST peptide served as the negative control cell adhesion peptide. The RGDS peptide served as an additional control. Endothelial cell adhesion to RGDS is primarily mediated by alpha-5-beta-1 integrins. Therefore, alpha-4 integrin function blocking should not have a significant effect on adhesion to RGDS. Thus, specificity of HCAEC and HUVEC binding to CS-1 via alpha-4 integrins could be tested.

[5] = biological target: human alpha-4 integrin (CD49d), alpha-4-containing integrin heterodimers on endothelial cells (human) (UniProt P13612); assay: flow cytometry, FITC-BU49 on fixed HCAEC, against isotype control
human alpha-4 integrin (CD49d), alpha-4-containing integrin heterodimers on endothelial cells (human), sequence (P13612 34-1032, one chain of several): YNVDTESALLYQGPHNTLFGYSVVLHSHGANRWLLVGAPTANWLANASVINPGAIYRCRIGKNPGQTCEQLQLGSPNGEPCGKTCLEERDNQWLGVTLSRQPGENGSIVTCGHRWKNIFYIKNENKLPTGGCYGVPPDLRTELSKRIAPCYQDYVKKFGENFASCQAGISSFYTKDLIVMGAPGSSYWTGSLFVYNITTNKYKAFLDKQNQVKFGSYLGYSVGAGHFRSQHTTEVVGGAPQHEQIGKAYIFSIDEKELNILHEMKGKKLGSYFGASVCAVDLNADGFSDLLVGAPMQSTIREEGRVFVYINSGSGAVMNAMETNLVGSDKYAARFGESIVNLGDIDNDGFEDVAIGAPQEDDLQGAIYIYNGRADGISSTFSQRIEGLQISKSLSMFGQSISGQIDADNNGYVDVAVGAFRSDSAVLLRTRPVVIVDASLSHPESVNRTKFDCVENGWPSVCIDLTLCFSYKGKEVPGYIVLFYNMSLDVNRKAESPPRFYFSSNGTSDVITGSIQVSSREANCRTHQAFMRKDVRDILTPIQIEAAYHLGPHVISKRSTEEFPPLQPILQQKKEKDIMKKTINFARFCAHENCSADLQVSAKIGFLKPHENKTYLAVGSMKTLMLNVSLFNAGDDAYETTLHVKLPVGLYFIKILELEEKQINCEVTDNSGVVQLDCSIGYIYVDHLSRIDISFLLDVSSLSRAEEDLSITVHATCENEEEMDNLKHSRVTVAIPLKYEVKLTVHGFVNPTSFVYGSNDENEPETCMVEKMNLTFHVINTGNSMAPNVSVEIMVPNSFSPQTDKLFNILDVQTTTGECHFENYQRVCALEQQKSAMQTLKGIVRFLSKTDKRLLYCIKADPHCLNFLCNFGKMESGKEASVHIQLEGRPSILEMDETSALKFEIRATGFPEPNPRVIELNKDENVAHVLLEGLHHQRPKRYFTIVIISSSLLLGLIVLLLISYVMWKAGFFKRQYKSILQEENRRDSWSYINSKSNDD

[6] = biological target: human alpha-4 integrin (CD49d), alpha-4-containing integrin heterodimers on endothelial cells (human) (UniProt P13612); assay: flow cytometry, FITC-BU49 on fixed human foreskin fibroblasts, against isotype control
[7] = biological target: human alpha-4 integrin (CD49d), alpha-4-containing integrin heterodimers on endothelial cells (human) (UniProt P13612); assay: flow cytometry, FITC-BU49 on fixed HUVEC, against isotype control
[8] = system: human platelets; assay: 51Cr-labeled platelet adhesion to immobilized ECM proteins under shear flow; type: cell-based; details: 16.5 dyne/cm^2, one hour; non-activated and thrombin-activated; versus CS-1 and glass control
Protocol: Characterization of human platelet adhesion to immobilized extracellular matrix proteins was performed by subjecting non-activated or thrombin-activated human platelets to a shear stress τ=16.5 dyne/cm^2 for one hour using a peristaltic pump-driven parallel plate fluid flow system. Washed human platelets were isolated as described above, resuspended in platelet washing buffer (PWB), and adjusted to a final concentration of approximately 0.5-1.0×10^9 platelets/ml. The platelet suspensions were incubated for thirty minutes at room temperature with 25 μCi/ml Na2^51CrO4 (GE Healthcare, Piscataway, N.J.). ^51Cr-labeled platelets were centrifuged at 2000×g for three minutes at room temperature and resuspended in 20 ml fresh frozen plasma previously thawed and warmed to 37° C. The ^51Cr-platelet/plasma solution was distributed equally (5 ml) into each of four reservoirs containing an additional 50 ml of 37° C. human plasma. For thrombin-activated platelets, 1 U thrombin (Sigma) per 3 ml platelet suspension was added immediately prior to aliquoting the ^51Cr-platelet/plasma solution into the flow loop reservoirs.
75×38×1 mm glass microscope slides were coated with ECM proteins as described above. Slides were incubated for one hour at room temperature with a 0.25% (w/v) sterile-filtered BSA solution. […]

[9] = system: human platelets; assay: DiOC6-labeled platelet adhesion imaging under shear flow; type: cell-based; details: 16.5 dyne/cm^2, one hour
Protocol: To visualize shear stress-mediated platelet adhesion to the immobilized ECM proteins, non-radiolabeled non-activated or thrombin-activated human platelets were prepared as described above, but were first incubated for ten minutes at room temperature with a 10 μM DiOC6 (dihexaoxacarbocyanine iodide) (Sigma) solution prior to being subjected to flow for one hour at a shear stress τ=16.5 dyne/cm^2. Post-flow, all slides were rinsed twice with PBS and fixed with 4% (w/v) paraformaldehyde. Platelet adhesion was visualized on a Nikon Diaphot 200 inverted epifluorescence microscope (Nikon) at 488 nm using a 40× objective. Images were captured using an Olympus DP70 digital camera (Olympus America, Inc.) and analyzed using the Adobe® Photoshop® software package version 6.0 (Adobe Systems Incorporated, San Jose, Calif.).

[10] = biological target: human alpha-4 integrin (CD49d), alpha-4-containing integrin heterodimers on endothelial cells (human, UniProt P13612 34-1032); assay: cell-based or functional assay
human alpha-4 integrin (CD49d), alpha-4-containing integrin heterodimers on endothelial cells, sequence (P13612 34-1032, one chain of several): as above

## EILDV (listed as Homo sapiens) [fibronectin IIICS peptide]
[1]
  HCAEC adhesion compared with RGES control: not statistically different than the RGES control

## EILEVPST (listed as Homo sapiens) [alpha-4 integrin-mediated negative control peptide]
[1]
  HCAEC adhesion compared with RGES control: essentially equivalent
[2]
  difference in HUVEC adhesion between IgG isotype control and alpha-4 integrin blocking antibody treated cells: not statistically significant
[3]
  HUVEC adhesion compared with RGES control: essentially equivalent
[4]
  difference in HCAEC adhesion between IgG isotype control and alpha-4 integrin blocking antibody treated cells: not statistically significant

## FITC-conjugated mouse monoclonal IgG1 anti-human alpha-4 integrin (CD49d, clone BU49) (Chemicon International) (antibody)
[5]
  percent of cell population positive: 40%
[6]
  percent of cell population positive: 75%
[7]
  percent of cell population positive: 10%

## RGDS (listed as Homo sapiens) [integrin-mediated cell adhesion peptide, positive control]
[2]
  difference in HUVEC adhesion between IgG isotype control and alpha-4 integrin blocking antibody treated cells: not statistically significant
[4]
  difference in HCAEC adhesion between IgG isotype control and alpha-4 integrin blocking antibody treated cells: not statistically significant

## type I human collagen: human type I collagen (Sigma), extracellular matrix protein
[8]
  flowed platelet binding (51Cr), both states of activation: significantly increased binding
[9]; non-activated platelets
  non-activated platelet adhesion and thrombus formation (DiOC6 images): quite vigorous, with clear evidence of multiple organized thrombi
[9]; platelets activated prior to flow
  thrombin-activated platelet adhesion and thrombus formation (DiOC6 images): mimicked the non-activated counterparts

## DELPQLVTLPHPNLHGPEILDVPST
[10]
  HCAEC adhesion to immobilized peptide, fold relative to control peptide RGES (crystal violet, A562): 1.6 fold
  HUVEC adhesion to immobilized peptide, fold relative to control peptide RGES (crystal violet, A562): ~4 fold
  percent more of the total HCAEC population adhered, relative to RGES: ~20%
  percent more of the total HUVEC population adhered, relative to RGES: ~25%
